Data: PMC12227661, “Shedding Light on the Phytochemical and Biological Fingerprints of Fibigia clypeata (L.) Medik Essential Oil as a Pharmacotherapeutic Agent” (Food Science & Nutrition, 2025)
Converted amounts (≈) assume the structure as drawn.

What was measured:
[1] = DPPH free radical scavenging activity assay
Protocol: The DPPH radical scavenging activity assay has been performed according to the method of Blois et al. with minor modifications (Blois [1958]). Butylated Hydroxy Toluene (BHT), Butylated Hydroxy Anisole (BHA), and α‐TOC (Tocopherol) were also assayed as standards for comparison.

[2] = ABTS cation radical decolorization activity; conditions: footnote a: given as IC50
Excerpt: The procedure was followed from the literature (Miller et al. [1993]) and the measurements at 734 nm were read for each concentration relative to a blank absorbance (DMSO). BHA, BHT, and ‐TOC were used as standards. The obtained values were compared to the standards.

[3] = CUPRAC cupric ion‐reducing antioxidant capacity; conditions: absorbance 450 nm after 30 min
Protocol: The antioxidant capacity assay to identify the reductive efficiencies of the essential oil for Cu metal was performed according to the method reported in the literature (Apak et al. [2005]). The absorbances were measured at 450 nm after 30 min. BHA, BHT, and α‐TOC were used as standards.

[4] = biological target: T1, Acetylcholinesterase (AChE) (Electrophorus electricus, UniProt O42275); design: method as in Ryan and Bryan [1988]; conditions: ref Ryan and Bryan [1988]; cited from earlier work
T1 construct: purchased Sigma C3389
T1 sequence (O42275 24-633): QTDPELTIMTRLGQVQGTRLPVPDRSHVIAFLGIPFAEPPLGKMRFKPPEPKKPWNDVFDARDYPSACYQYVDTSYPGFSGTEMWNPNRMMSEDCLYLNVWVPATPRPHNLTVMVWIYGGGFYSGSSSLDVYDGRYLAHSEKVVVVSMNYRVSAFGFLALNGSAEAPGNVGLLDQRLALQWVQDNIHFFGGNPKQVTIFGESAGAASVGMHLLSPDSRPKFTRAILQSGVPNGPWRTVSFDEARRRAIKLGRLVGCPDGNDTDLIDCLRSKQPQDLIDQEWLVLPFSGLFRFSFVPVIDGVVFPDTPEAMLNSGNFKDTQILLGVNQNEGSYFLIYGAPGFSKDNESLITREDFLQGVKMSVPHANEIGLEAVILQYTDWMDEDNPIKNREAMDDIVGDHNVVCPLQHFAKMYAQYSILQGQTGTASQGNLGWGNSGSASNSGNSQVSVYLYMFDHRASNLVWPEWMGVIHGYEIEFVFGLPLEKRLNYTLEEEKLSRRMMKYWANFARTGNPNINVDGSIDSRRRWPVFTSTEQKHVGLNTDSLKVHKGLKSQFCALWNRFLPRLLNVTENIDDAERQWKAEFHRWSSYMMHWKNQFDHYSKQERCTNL

four yeast strains = system: four yeast strains; design: method as in Kyung and Fleming [1997]; conditions: ref Kyung and Fleming [1997]; cited from earlier work
[5] = system: various bacterial strains; design: method as in Kyung and Fleming [1997]; conditions: ref Kyung and Fleming [1997]; cited from earlier work

For Cc1c(C)c2c(c(C)c1O)CC[C@@](C)(CCC[C@H](C)CCC[C@H](C)CCCC(C)C)O2 [α‐TOC, Tocopherol], the “IC50 values DPPH free radical” value [1] was 1.41 ± 0.04 µg/mL (≈ 3.27 µM), the “A 0.5 values ABTS cation radical” value [2] was 8.48 ± 0.43 µg/mL and the “A 0.5 values CUPRAC” value [3] was 13.64 ± 0.32 µg/mL.

For C=CC(C)(O)CCC=C(C)C (stereo not drawn) [Compound 6, Linalool], the AChE inhibition [4] is given as “no significant inhibition”.

In the case of CSSSC [Compound 2, Dimethyl trisulfide], the MIC (four yeast strains) is listed as 20 ppm and the MIC [5] is listed as 200 ppm.

For Cc1cc(C(C)(C)C)c(O)c(C(C)(C)C)c1 [BHT, Butylated Hydroxy Toluene], the “IC50 values DPPH free radical” value [1] was 16.71 ± 0.80 µg/mL (≈ 75.8 µM), the “A 0.5 values ABTS cation radical” value [2] was 4.44 ± 0.30 µg/mL and the “A 0.5 values CUPRAC” value [3] was 3.93 ± 0.24 µg/mL.

For COc1ccc(O)c(C(C)(C)C)c1 [BHA, Butylated Hydroxy Anisole], the “IC50 values DPPH free radical” value [1] was 3.22 ± 0.08 µg/mL (≈ 17.9 µM), the “A 0.5 values ABTS cation radical” value [2] was 2.74 ± 0.03 µg/mL and the “A 0.5 values CUPRAC” value [3] was 4.14 ± 0.17 µg/mL.
